# The source made the active and inactive calls.
# What was measured:
# [1] = molecular target: T1, Mitochondrial peptide methionine sulfoxide reductase (Bos taurus, UniProt P54149); test: Absorbance-based biochemical high throughput dose response assay for activators of Methionine sulfoxide reductase A (MsrA).; type: functional
# T1 sequence (P54149 whole entry): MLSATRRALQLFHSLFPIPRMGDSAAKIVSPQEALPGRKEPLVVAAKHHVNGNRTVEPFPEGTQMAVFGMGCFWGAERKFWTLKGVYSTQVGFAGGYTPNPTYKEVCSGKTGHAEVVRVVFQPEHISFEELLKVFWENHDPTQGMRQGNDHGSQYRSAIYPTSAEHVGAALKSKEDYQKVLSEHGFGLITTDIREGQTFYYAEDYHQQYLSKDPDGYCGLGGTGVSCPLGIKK
# [2] = molecular target: T2, Rac GTPase-activating protein 1 (Homo sapiens, UniProt Q9H0H5); test: MgcRacGAP GTPase-activating activity inhibitors, confirmation, biochemical, ADP Hunter fluorescence, primary and confirmatory (AID 624330); type: functional
# T2 sequence (Q9H0H5 whole entry): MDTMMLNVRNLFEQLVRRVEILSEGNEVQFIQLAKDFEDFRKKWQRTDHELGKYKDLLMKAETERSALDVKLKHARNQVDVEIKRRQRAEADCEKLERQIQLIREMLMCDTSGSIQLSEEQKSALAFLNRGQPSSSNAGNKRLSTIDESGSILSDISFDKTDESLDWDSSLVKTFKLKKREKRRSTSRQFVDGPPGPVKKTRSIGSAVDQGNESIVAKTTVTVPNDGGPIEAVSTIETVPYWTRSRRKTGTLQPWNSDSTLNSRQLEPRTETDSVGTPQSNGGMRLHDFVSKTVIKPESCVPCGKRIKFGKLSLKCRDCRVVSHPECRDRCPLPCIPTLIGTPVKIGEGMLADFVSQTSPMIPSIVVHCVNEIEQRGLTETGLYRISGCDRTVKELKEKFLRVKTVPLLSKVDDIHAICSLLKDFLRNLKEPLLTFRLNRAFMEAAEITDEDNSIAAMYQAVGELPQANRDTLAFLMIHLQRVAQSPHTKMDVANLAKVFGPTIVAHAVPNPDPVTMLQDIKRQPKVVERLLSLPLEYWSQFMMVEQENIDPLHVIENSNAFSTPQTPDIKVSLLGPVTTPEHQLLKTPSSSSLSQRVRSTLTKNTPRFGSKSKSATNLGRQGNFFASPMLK
# [3] = ARNT/TACC3 interaction disruptors, potency, confirmation, biochemical, AlphaScreen, cherry-picked samples (AID 651703); type: functional, Homo sapiens;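 note: His-tagged ARNT PAS-B domain paired with GST-TACC3 E629A dimer coactivator fragment; potency of inhibitors that break up the complex and lower AlphaScreen signal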
# [4] = molecular target: T3, RNA-binding protein pos-1 (Caenorhabditis elegans, UniProt G5EF15); test: inhibitors of POS-1/mex-3 RNA binding, dose response, biochemical, fluorescence polarization (AID 1964);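 note: purified POS-1 fused to maltose binding protein made in E. coli; potency of compounds blocking POS-1 binding to fluorescent RNA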
# T3 sequence (G5EF15 whole entry): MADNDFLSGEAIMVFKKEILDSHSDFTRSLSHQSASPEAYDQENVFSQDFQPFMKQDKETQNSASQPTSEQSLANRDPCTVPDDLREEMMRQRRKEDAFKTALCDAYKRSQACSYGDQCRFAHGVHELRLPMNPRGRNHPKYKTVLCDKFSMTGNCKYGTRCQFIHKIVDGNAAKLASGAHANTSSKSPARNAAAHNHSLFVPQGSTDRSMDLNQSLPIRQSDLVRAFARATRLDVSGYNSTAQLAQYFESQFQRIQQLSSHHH
# [5] = molecular target: Dual specificity tyrosine-phosphorylation-regulated kinase 1A (Rattus norvegicus, UniProt Q63470); type: biochemical, Homo sapiens
# [6] = molecular target: T4, Zinc finger protein mex-5 (Caenorhabditis elegans, UniProt Q9XUB2); test: MEX-5/TCR-2 RNA interaction inhibitors, dose response, biochemical, C. elegans, fluorescence polarization (AID 1960)
# T4 sequence (Q9XUB2 whole entry): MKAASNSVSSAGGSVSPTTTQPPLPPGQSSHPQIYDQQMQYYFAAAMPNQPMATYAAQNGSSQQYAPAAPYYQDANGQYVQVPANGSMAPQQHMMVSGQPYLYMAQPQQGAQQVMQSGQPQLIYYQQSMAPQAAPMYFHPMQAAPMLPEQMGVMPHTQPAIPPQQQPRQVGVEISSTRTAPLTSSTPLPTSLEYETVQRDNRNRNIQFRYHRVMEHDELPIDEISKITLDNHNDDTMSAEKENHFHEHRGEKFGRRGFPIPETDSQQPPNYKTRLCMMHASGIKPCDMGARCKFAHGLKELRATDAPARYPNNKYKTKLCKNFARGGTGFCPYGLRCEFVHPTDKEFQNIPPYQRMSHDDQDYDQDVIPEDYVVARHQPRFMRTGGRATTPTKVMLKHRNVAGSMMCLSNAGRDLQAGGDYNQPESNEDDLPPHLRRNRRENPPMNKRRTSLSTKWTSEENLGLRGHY
# [7] = molecular target: Potassium voltage-gated channel subfamily KQT member 2 (Rattus norvegicus, UniProt O88943); test: KCNQ2 potassium channel inhibitors, dose response, cell-based, automated electrophysiology, set II, rat KCNQ2 (AID 588637); type: functional
# Sequence of Potassium voltage-gated channel subfamily KQT member 2 (O88943 whole entry): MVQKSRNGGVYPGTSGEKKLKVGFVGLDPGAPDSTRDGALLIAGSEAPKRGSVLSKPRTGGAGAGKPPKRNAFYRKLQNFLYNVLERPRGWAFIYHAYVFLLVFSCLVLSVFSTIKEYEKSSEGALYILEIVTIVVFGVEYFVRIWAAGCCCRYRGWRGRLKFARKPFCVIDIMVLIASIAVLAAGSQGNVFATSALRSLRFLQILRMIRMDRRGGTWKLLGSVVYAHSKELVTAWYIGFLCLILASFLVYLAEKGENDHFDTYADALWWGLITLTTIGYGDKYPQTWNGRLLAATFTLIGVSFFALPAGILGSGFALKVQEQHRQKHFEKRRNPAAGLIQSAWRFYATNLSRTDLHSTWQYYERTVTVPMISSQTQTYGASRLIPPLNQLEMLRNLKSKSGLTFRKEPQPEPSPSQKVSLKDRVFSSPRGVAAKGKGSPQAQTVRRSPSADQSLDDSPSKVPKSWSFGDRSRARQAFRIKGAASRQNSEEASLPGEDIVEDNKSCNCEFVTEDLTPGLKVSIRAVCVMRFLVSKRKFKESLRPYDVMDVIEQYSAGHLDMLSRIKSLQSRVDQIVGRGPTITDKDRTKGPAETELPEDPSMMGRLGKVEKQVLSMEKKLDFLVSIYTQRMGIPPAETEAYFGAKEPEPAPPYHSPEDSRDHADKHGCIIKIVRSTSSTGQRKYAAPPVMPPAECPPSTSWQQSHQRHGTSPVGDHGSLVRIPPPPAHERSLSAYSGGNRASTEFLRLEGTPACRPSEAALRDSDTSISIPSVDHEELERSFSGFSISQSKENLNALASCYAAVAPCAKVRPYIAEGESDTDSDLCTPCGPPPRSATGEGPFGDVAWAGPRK
# [8] = molecular target: Tyrosine-protein kinase Fyn (Homo sapiens, UniProt P06241); type: functional
# Sequence of Tyrosine-protein kinase Fyn (P06241 whole entry): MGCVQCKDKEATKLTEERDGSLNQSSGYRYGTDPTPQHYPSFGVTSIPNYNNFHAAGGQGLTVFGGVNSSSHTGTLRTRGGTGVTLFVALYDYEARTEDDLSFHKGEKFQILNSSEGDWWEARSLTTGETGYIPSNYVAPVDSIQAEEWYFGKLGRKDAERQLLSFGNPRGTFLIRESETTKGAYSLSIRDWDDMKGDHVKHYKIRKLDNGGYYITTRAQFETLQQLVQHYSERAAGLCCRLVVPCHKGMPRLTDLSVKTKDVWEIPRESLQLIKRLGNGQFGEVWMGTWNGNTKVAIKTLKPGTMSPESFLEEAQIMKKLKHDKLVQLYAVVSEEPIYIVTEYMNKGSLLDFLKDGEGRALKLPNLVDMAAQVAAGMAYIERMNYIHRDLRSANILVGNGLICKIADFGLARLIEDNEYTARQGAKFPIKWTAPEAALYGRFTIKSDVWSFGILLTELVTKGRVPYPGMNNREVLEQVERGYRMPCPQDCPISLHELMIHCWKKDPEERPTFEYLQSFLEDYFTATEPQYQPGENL
# [9] = molecular target: Dual specificity protein kinase CLK4 (Homo sapiens, UniProt Q9HAZ1); type: functional
# [10] = molecular target: Serine/threonine-protein kinase pim-1 (Homo sapiens, UniProt P11309); type: functional
# Sequence of Serine/threonine-protein kinase pim-1 (P11309 whole entry): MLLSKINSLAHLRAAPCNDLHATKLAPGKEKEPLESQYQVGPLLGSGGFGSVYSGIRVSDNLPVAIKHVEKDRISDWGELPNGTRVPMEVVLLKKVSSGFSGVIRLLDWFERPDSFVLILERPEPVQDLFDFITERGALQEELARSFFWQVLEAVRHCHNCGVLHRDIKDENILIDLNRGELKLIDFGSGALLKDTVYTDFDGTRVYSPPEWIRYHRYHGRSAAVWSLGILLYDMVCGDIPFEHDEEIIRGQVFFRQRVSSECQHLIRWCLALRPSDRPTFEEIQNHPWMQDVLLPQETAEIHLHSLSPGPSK
# [11] = molecular target: ALK tyrosine kinase receptor (Homo sapiens, UniProt Q9UM73); type: functional;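 note: ALK tested as one member of a kinase panel screen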
# Sequence of ALK tyrosine kinase receptor (Q9UM73 whole entry): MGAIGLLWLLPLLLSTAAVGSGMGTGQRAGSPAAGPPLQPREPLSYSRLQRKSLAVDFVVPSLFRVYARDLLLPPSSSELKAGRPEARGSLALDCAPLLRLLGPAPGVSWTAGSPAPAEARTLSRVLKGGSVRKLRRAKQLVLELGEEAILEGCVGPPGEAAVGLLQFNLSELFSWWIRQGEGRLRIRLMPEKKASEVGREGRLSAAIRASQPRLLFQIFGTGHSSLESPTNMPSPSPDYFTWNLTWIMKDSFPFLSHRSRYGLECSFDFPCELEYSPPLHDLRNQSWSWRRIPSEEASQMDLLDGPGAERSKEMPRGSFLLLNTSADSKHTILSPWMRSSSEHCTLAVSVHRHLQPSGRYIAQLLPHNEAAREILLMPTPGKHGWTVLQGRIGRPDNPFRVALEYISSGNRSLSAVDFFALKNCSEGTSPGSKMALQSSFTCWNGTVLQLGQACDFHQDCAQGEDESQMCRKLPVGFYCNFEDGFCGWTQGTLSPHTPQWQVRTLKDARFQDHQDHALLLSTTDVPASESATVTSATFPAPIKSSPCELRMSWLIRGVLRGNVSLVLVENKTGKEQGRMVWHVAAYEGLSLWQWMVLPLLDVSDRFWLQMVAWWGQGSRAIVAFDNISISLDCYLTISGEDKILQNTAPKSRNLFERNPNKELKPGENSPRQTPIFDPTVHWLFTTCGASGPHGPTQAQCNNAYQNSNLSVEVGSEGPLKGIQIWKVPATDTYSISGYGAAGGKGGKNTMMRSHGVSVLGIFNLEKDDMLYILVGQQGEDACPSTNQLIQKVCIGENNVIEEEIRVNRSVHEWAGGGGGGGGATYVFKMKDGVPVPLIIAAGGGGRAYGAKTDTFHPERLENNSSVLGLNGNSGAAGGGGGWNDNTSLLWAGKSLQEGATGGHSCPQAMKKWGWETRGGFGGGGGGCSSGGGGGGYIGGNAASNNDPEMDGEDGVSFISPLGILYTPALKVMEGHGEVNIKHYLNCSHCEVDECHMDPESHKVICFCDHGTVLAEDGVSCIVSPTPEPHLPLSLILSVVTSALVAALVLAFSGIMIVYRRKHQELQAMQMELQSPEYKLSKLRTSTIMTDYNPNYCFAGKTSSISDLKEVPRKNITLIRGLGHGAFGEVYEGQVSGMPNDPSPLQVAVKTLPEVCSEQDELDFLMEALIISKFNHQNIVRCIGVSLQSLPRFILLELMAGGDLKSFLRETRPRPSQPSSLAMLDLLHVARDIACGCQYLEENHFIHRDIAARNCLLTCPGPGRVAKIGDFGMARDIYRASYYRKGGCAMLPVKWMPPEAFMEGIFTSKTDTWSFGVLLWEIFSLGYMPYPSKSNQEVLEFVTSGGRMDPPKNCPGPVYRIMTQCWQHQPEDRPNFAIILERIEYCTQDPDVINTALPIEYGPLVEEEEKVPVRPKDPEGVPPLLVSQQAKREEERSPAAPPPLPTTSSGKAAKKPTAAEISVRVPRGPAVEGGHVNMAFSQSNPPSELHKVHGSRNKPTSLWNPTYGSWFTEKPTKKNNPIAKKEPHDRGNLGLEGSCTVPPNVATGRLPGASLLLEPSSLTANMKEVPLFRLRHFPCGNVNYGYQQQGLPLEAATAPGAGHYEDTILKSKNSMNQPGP
# [12] = molecular target: Tyrosine-protein kinase BTK (Homo sapiens, UniProt Q06187); type: functional
# [13] = molecular target: T5, Serine/threonine-protein kinase TAO1 (Homo sapiens, UniProt Q7L7X3); type: functional
# T5 sequence (Q7L7X3 whole entry): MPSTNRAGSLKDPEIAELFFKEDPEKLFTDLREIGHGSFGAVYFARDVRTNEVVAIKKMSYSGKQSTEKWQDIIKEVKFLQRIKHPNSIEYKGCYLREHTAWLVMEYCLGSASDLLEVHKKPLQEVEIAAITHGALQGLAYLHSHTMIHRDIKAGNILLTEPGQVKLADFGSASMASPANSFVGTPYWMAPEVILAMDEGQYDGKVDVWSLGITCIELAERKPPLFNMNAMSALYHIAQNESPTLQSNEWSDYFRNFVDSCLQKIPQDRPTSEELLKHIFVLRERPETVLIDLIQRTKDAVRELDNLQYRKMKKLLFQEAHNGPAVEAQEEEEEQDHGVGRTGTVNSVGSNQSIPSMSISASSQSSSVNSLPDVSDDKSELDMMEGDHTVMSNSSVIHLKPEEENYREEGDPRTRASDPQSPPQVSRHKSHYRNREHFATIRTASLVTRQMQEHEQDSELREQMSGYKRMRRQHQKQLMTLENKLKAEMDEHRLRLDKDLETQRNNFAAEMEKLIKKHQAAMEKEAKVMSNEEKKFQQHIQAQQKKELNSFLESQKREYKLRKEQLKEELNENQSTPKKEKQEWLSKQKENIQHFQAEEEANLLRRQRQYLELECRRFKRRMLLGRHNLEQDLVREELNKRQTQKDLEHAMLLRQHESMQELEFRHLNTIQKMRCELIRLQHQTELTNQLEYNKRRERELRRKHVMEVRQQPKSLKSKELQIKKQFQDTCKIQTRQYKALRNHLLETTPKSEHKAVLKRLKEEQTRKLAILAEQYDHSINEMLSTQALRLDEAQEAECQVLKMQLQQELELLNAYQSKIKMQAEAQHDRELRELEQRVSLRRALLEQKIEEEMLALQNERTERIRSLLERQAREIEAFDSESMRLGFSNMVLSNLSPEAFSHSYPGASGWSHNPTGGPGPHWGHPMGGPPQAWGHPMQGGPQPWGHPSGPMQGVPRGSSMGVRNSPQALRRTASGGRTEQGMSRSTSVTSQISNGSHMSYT
# [14] = molecular target: Tyrosine-protein kinase Lck (Homo sapiens, UniProt P06239); type: functional;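 note: lck was assayed as one member of a kinase panel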
# Sequence of Tyrosine-protein kinase Lck (P06239 whole entry): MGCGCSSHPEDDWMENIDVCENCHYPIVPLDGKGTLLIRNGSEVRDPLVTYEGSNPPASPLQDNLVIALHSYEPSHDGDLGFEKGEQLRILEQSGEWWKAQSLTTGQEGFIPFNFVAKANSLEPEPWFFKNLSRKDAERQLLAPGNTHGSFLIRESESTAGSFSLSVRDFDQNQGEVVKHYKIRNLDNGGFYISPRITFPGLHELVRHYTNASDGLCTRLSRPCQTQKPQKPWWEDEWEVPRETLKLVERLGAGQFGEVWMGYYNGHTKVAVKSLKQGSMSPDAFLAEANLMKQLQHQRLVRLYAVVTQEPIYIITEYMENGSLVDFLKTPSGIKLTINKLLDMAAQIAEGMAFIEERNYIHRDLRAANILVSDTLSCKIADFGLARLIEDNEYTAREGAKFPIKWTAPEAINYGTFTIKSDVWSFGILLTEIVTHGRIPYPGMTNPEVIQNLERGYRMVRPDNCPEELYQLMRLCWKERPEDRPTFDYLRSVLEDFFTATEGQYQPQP
# [15] = molecular target: BDNF/NT-3 growth factors receptor (Homo sapiens, UniProt Q16620); type: functional;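 note: NTRK2 measured as one member of a broad kinome-wide kinase profiling panel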
# [16] = molecular target: Dual specificity protein phosphatase 3 (Homo sapiens, UniProt P51452); test: VHR phosphatase inhibition, dose response, selectivity assay for STEP inhibitor project, biochemical (AID 602374); type: functional; conditions: read-out: IC50_Mean
# Sequence of Dual specificity protein phosphatase 3 (P51452 whole entry): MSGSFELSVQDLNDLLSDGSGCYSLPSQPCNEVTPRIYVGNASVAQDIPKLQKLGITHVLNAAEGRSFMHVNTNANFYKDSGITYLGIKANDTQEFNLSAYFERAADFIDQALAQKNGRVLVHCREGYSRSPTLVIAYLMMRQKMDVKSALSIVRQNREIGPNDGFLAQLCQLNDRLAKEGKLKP
# [17] = molecular target: Tyrosine-protein phosphatase non-receptor type 11 (Homo sapiens, UniProt Q06124); test: SHP2 phosphatase inhibition, dose response, selectivity assay for STEP inhibitor project, biochemical (AID 602367); type: functional; conditions: read-out: IC50_Mean
# Sequence of Tyrosine-protein phosphatase non-receptor type 11 (Q06124 whole entry): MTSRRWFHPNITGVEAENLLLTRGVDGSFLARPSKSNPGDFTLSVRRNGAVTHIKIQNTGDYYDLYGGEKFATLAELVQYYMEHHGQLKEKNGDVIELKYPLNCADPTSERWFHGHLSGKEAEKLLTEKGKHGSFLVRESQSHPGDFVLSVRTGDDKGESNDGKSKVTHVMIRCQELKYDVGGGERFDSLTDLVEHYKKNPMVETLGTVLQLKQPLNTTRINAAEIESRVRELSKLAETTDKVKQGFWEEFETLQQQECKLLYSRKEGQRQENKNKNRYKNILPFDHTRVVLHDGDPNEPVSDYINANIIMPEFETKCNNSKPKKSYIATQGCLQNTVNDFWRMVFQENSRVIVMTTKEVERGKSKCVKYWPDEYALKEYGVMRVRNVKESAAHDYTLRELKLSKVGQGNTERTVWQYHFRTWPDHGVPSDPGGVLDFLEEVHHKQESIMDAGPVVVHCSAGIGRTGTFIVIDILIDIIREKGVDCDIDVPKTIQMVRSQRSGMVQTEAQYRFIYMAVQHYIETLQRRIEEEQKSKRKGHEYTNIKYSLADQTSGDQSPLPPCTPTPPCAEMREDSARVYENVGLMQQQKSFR
# [18] = molecular target: Tyrosine-protein phosphatase non-receptor type 5 (Homo sapiens, UniProt P54829); test: STEP phosphatase inhibitors, confirmation, biochemical, fluorescence intensity, uHTS hits (AID 602372); type: functional; conditions: read-out: IC50_Mean
smiles,measurement,setting,value
Nc1nc(=S)ss1,EC50,[1],10.3 µM (inactive)
same,IC50,[2],301 µM (active)
FC(F)(F)c1cnc(-c2cnc(-c3ccccn3)nc2)c(Cl)c1,AC50,[3],75.3 µM (active)
O=C1c2ccccc2C(=O)c2[nH]cnc21,EC50,[1],> 104 µM (inactive)
same,EC50,[4],> 300 µM (not active)
same,AC50,[5],7.57 µM (active)
same,EC50,[6],85.6 µM (active)
COc1ccc(Nc2ccccc2NC(=O)c2ccccc2Br)cc1,IC50,[7],4.81 µM (active)
Cc1ccc2c(C)c(C(=O)N3CCN(c4ncccn4)CC3)oc2c1C,IC50,[7],4.2 µM (active)
O=C(Nc1ccccc1N1CCCC1)c1ccc2ccccc2n1,Ki,[8],> 6.31 µM (inactive)
same,Ki,[9],1.26 µM (active)
same,Ki,[10],> 6.31 µM (inactive)
same,Ki,[11],> 6.31 µM (inactive)
same,Ki,[12],> 6.31 µM (inactive)
same,Ki,[13],> 6.31 µM (inactive)
same,Ki,[14],> 6.31 µM (inactive)
same,Ki,[15],0.631 µM (active)
CCOC(=O)c1c(NC(=O)OC)sc(C(=O)N(CC)CC)c1C,IC50,[16],1.56 µM (active)
same,IC50,[17],4.3 µM (active)
same,IC50,[18],28.4 µM (inactive)

# Reference: ChEMBL document CHEMBL1201862, “PubChem BioAssay data set” (2004)
